Laboratory results from patent US8722649B2, “Alpha-chloro and alpha-bromo phosphonate analogs of lysophosphatidic acid and methods of making and using thereof” (University of Utah Research Foundation, priority 2007, dated 2014).
Where two headings read alike, the source gives them in different places.

Assays:
human LPA2 = molecular target: T1, human LPA2 (Homo sapiens, UniProt Q9HBW0); experiment: Ca2+ mobilization assay, LPA2; assay type: cell-based; conditions: for EC50: RH7777 cells stably expressing LPA2, agonist mode; for IC50: read-out: LPA2 IC50; for Ki: read-out: LPA2 (Ki)
T1 construct: expressed in transfected cells
Experimental: (§1) Receptor activation using Ca^2+ mobilization assay for diastereomers of 1 (also represented as 19b). The rat hepatoma (RH7777) cell lines individually expressing either LPA1, LPA2, LPA3 or LPA5 receptors and Chinese hamster ovary (CHO) cell line were analyzed to examine agonism and antagonism. […] CHO cells stably expressing either vector or LPA4 were kindly gifted from Dr. Shimizu (University of Tokyo, Tokyo, Japan).
(§2) Stable transformants of LPA1/2/3 receptors. RH7777 cells stably expressing each receptor were plated onto poly-L-lysine (PLL) (0.1 mg/mL)-coated black-wall clear-bottom 96-well plates (Corning Incorporated Life Sciences, Acton, Mass.) at a density of 5×10^4 cells/well and cultured overnight. The following day, the culture medium was replaced with modified Krebs buffer (120 mM NaCl, 5 mM KCl, 0.62 mM MgSO4, 1.8 mM CaCl2, 10 mM HEPES, 6 mM glucose, pH 7.4), and the cells were serum starved for 6 h. Subsequently, cells were loaded with Fura-2 AM (Invitrogen, Carlsbad, Calif.) for 35 min in modified Krebs buffer containing 2% (v/v) pluronic acid.
(§3) After incubating the cells with Fura-2 AM, the cells were rinsed with Krebs buffer and changes in the intracellular Ca^2+ concentration were monitored by determining the ratio of emitted light intensities at 520 nm in response to excitation at 340 and 380 nm using FLEXstation II (Molecular Devices, Sunnyvale, Calif.). Each well was monitored for 80-120 sec. For testing agonist activity of the compounds, the test compounds were added automatically after 15 sec of baseline measurement. […] Each test was performed in quadruplicate. EC50, IC50, and Ki values were calculated by fitting a sigmoid function to data points with the nonlinear curve-fitting feature of KaleidaGraph (Synergy Software, Essex Junction, Vt.).
(§4) Receptor activation using Ca^2+ mobilization assay. The assay for mobilization of intracellular Ca^2+ was performed as described. Briefly, rat hepatoma RH7777 cells stably expressing human LPA1, LPA2, or LPA3, and CHO cells stably expressing LPA4, were loaded with Fura-2 AM (Molecular Probes). Using a FLEXStation (Molecular Devices, Sunnyvale, Calif.), changes in intracellular Ca^2+ concentration were monitored. Ligand-induced changes in fluorescence were monitored for 80-120 seconds. Ca^2+ transients were quantified automatically by calculating the difference between maximum and baseline ratio values for each sample. […] Each test was performed in quadruplicate. EC50, IC50, and Ki values were calculated as described. The ligand properties of the compounds were evaluated using Ca^2+ mobilization assay for assessing the activation/inhibition of LPA1, LPA2, and LPA3 expressed in RH7777 cells and LPA4 expressed in CHO cells.

human LPA3 = molecular target: T2, human LPA3 (Homo sapiens, UniProt Q9UBY5); experiment: Ca2+ mobilization assay, LPA3; assay type: cell-based; conditions: for Emax: Emax = (maximal efficacy of compound/maximal efficacy of LPA 18:1) × 100; for EC50: RH7777 cells stably expressing LPA3, agonist mode
T2 construct: expressed in transfected cells
T2 sequence (Q9UBY5 1-353): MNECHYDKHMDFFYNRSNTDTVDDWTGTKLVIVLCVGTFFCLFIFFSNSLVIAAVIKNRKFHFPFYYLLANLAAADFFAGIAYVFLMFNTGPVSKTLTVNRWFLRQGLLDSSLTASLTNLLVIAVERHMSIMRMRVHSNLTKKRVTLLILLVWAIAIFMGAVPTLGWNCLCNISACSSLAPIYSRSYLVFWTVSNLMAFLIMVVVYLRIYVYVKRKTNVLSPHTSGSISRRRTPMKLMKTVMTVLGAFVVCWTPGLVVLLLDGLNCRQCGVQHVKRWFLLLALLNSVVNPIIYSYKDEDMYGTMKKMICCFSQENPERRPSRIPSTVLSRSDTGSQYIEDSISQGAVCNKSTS
Experimental: as §1, §2, §3, §4

recombinant ATX-HA = molecular target: T3, recombinant ATX-HA (Homo sapiens, UniProt Q13822); experiment: Autotaxin assay (FS-3 hydrolysis); assay type: biochemical; conditions: 10.0 μM, FS-3 substrate, preliminary single-dose screen; for inhibition at 10 µM: read-out: Inhibition (%) of autotaxin (ATX) phosphodiesterase activity
T3 construct: HA
Experimental: Autotaxin Assay. This assay utilizes FS-3 (Echelon Biosciences, Inc. Salt Lake City, Utah) as substrate and recombinant ATX-HA. For analysis, 50 μl of ATX-HA (0.25 μg) in assay buffer (Tris 50 mM, NaCl 140 mM, KCl 5mM, CaCl2 1 mM, MgCl2 1 mM, pH 8.0) was mixed with 25 μl of FS-3 (1 μM final concentration in assay buffer) and 25 μl of test compound dissolved in assay buffer containing 1:1.5 bovine serum albumin in 96-well plate. FS-3 fluorescence was monitored using FLEXstation fluorescence plate reader at a time zero and after 2 hours of incubation at 37° C. at excitation and emission wavelengths of 485 nm and 538 nm, respectively. Data was normalized to the corresponding vehicle control and the mean±standard deviation of triplicate wells were expressed as percent ATX inhibition. IC50, and Ki values were calculated as described.

human LPA4 = molecular target: T4, human LPA4 (Homo sapiens, UniProt Q99677); experiment: Ca2+ mobilization assay, LPA4 in CHO cells; assay type: cell-based; conditions: for EC50: CHO cells stably expressing LPA4, agonist mode
T4 construct: expressed in transfected cells
Experimental: as §1
Stable transformants of LPA4. CHO cells stably expressing either vector or LPA4 were plated on non-coated 96 well plates at a density of 4×10^4 cells/well and cultured overnight. The following day, cells were loaded with Fura-2 AM for 1 h in modified Krebs buffer containing 2% (v/v) pluronic acid and 2.5 mM probenecid.
as §3, §4

human LPA1 = molecular target: T5, human LPA1 (Homo sapiens, UniProt Q92633); experiment: Ca2+ mobilization assay, LPA1; assay type: cell-based; conditions: for EC50: RH7777 cells stably expressing LPA1, agonist mode; for IC50 / Ki: antagonist mode vs 200 nM LPA; for IC50: PA = partial antagonist, read-out: LPA1 IC50; for Ki: read-out: LPA1 (Ki)
T5 construct: expressed in transfected cells
Experimental: as §1, §2
After incubating the cells with Fura-2 AM, the cells were rinsed with Krebs buffer and changes in the intracellular Ca^2+ concentration were monitored by determining the ratio of emitted light intensities at 520 nm in response to excitation at 340 and 380 nm using FLEXstation II (Molecular Devices, Sunnyvale, Calif.). Each well was monitored for 80-120 sec. For testing agonist activity of the compounds, the test compounds were added automatically after 15 sec of baseline measurement. To determine antagonist properties, varying concentrations of the compounds were mixed with a constant concentration of LPA and responses were monitored. Each test was performed in quadruplicate. EC50, IC50, and Ki values were calculated by fitting a sigmoid function to data points with the nonlinear curve-fitting feature of KaleidaGraph (Synergy Software, Essex Junction, Vt.).
Receptor activation using Ca^2+ mobilization assay. The assay for mobilization of intracellular Ca^2+ was performed as described. Briefly, rat hepatoma RH7777 cells stably expressing human LPA1, LPA2, or LPA3, and CHO cells stably expressing LPA4, were loaded with Fura-2 AM (Molecular Probes). Using a FLEXStation (Molecular Devices, Sunnyvale, Calif.), changes in intracellular Ca^2+ concentration were monitored. Ligand-induced changes in fluorescence were monitored for 80-120 seconds. Ca^2+ transients were quantified automatically by calculating the difference between maximum and baseline ratio values for each sample. To determine antagonist properties, different concentrations of each analogue were mixed with either palmitoyl (16:0) or oleoyl (18:1) LPA (200 nM for LPA1 and LPA3, 10 nM for LPA2, and 400 nM for LPA4) (Avanti Polar Lipids, Inc., […], Ala.) and responses were recorded. Each test was performed in quadruplicate. EC50, IC50, and Ki values were calculated as described. The ligand properties of the compounds were evaluated using Ca^2+ mobilization assay for assessing the activation/inhibition of LPA1, LPA2, and LPA3 expressed in RH7777 cells and LPA4 expressed in CHO cells. Table l illustrates calcium responses elicited through the activation of human LPA1, LPA2, LPA3 and LPA4 receptors. These cell lines have been used extensively for the characterization of LPA GPCR ligands because RH7777 cells are intrinsically unresponsive to LPA and CHO cells show minimal endogenous responses to LPA unless transfected with LPA4.

PPARγ = molecular target: T6, PPARγ (Homo sapiens, UniProt P37231); experiment: PPARγ activation assay (PPRE-Acox-Rluc reporter in CV-1 cells); assay type: cell-based; conditions: 10 μM test analogue, 20 h
T6 construct: expressed in transfected cells; host or cells: CV-1 cells, transient (LipofectAMINE 2000)
T6 sequence (P37231 1-505): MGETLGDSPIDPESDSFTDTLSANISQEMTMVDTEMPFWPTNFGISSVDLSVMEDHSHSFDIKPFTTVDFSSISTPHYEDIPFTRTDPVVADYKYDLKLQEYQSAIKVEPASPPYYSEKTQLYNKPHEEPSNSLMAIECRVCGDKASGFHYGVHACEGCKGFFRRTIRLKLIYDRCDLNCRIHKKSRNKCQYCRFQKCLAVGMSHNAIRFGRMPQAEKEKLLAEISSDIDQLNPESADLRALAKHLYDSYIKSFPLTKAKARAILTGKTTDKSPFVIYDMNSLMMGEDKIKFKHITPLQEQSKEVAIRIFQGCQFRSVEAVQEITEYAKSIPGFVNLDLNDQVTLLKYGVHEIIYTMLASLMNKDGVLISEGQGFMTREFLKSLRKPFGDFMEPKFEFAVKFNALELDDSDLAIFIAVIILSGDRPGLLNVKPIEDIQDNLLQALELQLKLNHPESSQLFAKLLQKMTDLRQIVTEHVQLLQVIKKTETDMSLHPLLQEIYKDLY
Experimental: PPARγ activation assay. PPARγ activation was performed using CV-1 cells transfected with an acyl-coenzyme A oxidase-luciferase (PPRE-Acox-Rluc) reporter gene construct as previously reported. Briefly, CV-1 cells were plated in 96-well plates at a density of 1×10^4 cells per well in Dulbecco's modified Eagle's medium supplemented with 10% fetal bovine serum. The next day, the cells were transiently transfected with 125 ng of pGL3-PPRE-Acox-Rluc, 62.5 ng of pcDNA3.1 PPARγ, and 12.5 ng of pSV-β-galactosidase (Promega) using LipofectAMINE 2000 (Invitrogen). Twenty-four hours after transfection, cells were treated with OptiMEM (Invitrogen) containing 10 μM Rosiglitazone or 10 μM of the test analogue dissolved in DMSO for 20 h. Luciferase and β-galactosidase activities were measured with Steady-Glo® Luciferase Assay System (Promega) and the Galacto-Light Plus™ system (Applied Biosystems), respectively. Samples were run in quadruplicate and the mean ±standard errors were calculated. Data are representative of at least two independent transfections.

[1] = antagonist mode vs 10 nM LPA, PA = partial antagonist

T1 sequence (Q9HBW0 whole entry): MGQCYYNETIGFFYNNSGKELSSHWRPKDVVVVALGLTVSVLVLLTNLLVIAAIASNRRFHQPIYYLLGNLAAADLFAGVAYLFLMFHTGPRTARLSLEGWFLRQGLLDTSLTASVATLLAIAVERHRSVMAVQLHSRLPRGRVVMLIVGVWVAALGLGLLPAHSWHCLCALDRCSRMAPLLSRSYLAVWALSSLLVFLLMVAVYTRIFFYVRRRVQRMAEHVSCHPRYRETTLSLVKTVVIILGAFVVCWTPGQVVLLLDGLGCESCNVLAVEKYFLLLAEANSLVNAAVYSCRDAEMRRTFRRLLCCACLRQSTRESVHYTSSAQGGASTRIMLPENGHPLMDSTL
T4 sequence (Q99677 whole entry): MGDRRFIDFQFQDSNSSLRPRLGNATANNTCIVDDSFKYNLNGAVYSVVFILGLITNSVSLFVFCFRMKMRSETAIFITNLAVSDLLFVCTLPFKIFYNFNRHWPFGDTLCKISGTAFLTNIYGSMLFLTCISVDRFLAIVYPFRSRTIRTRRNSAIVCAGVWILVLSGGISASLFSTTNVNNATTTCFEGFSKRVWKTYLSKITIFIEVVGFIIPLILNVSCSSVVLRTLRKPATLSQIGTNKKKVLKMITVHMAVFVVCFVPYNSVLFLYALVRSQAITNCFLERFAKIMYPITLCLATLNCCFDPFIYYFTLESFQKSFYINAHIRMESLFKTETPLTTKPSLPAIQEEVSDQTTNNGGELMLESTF
T5 sequence (Q92633 whole entry): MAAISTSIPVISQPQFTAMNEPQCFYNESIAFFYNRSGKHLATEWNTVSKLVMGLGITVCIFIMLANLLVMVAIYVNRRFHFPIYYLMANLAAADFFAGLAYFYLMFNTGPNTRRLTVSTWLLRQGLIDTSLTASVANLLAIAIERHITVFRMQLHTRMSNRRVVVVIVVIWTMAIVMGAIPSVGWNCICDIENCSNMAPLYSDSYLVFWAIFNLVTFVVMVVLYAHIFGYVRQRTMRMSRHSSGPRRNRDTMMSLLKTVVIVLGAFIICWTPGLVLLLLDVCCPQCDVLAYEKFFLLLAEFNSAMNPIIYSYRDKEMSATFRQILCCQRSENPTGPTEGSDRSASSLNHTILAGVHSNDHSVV

EC50 (human LPA2) [µM] | IC50 (human LPA2; [1]) [nM] | Ki (human LPA2; antagonist mode vs 10 nM LPA) [nM] | IC50 (human LPA2; antagonist of the LPA2 receptor) [nM] | Emax (human LPA3) [%] | EC50 (human LPA3) [µM] | inhibition at 10 µM (recombinant ATX-HA) [%] | EC50 (human LPA4) [µM] | Emax (human LPA4; CHO, Emax = (maximal efficacy of compound/maximal efficacy of LPA 18:1) × 100) [%] | Emax (human LPA1; Emax = (maximal efficacy of compound/maximal efficacy of LPA 18:1) × 100) [%] | EC50 (human LPA1) [µM] | IC50 (human LPA1) [µM] | Ki (human LPA3; antagonist mode vs 200 nM LPA, read-out: LPA3 (Ki)) [nM] | IC50 (human LPA3; read-out: LPA3 IC50) [nM] | inhibition at 30 µM (human LPA4; CHO, read-out: LPA4 inhibition of 400 nM LPA response) [%] | Ki (human LPA1) [nM] | Inhibition (%) of autotaxin (ATX) phosphodiesterase activity (recombinant ATX-HA) [%] | IC50 (human LPA4) [µM] | Ki (human LPA4; antagonist mode vs 400 nM LPA) [nM] | PPARγ (PPRE luciferase reporter gene assay) (PPARγ) | Compound
> 30 | 1690 ± 85 | 845 | 1700 | 63.5 | > 2.67 | 92.5 ± 2.1 | 3.48 ± 0.561 | 40.5 | 63.2 | 0.528 | > 30 | – | – | – | – | – | – | – | – | CCCCCCCC/C=C\CCCCCCCC(=O)OC[C@@H](O)CC(Cl)P(=O)(O)O (mixture of isomers) [Compound 18a, [1-Chloro-3(S)-hydroxyl-4-(oleoyloxy)butyl]-phosphonate]
> 30 | 855 | 428 | – | – | > 30 | 83 ± 2.1 | > 30 | – | – | > 30 | 2.49 ± 0.69 | 98.3 | 175 | 80 | 919 | – | – | – | – | CCCCCCCCCCCCCCCC(=O)OC[C@@H](O)CC(Cl)P(=O)(O)O (mixture of isomers) [Compound 18b, [1-Chloro-3(S)-hydroxyl-4-(palmitoyloxy)butyl]-phosphonate]
> 30 | 815 ± 60 | 174 | – | 44.2 | > 2.47 | > 90 | > 30 | – | – | > 30 | 1.62 ± 0.116 | – | – | – | 694 | 90.7 ± 2.3 | 4 ± 0.424 | 2500 | – | CCCCCCCC/C=C\CCCCCCCC(=O)OC[C@@H](O)CC(Br)P(=O)(O)O (mixture of isomers) [Compound 19a, [1-Bromo-3(S)-hydroxyl-4-(oleoyloxy)butyl]-phosphonate]
– | – | – | – | – | – | – | – | – | – | – | – | – | – | – | – | 78.5 ± 2.3 | – | – | – | CCCCCC/C=C\CCCCCCCC(=O)OCC1COP(=O)(O)C1 (stereo not drawn) [2ccPA (16:1), 2-carba cyclic phosphatidic acid 16:1, reference compound]
> 30 | – | – | – | – | > 30 | – | > 30 | – | – | > 30 | > 30 | – | – | – | – | 56.6 | – | – | – | CCCCCCCCCCCCCCCC(=O)OCC(O)CC(O)P(=O)([O-])O.[Na+] (stereo not drawn) [Compound 24a, reference compound]
> 30 | – | – | – | – | > 30 | – | > 30 | – | – | > 30 | > 30 | – | – | – | – | 43.4 | – | – | – | CCCCCCCCCCCCCCCC(=O)OCC(O)CC(O)P(=O)([O-])O.[Na+] (stereo not drawn) [Compound 24b, reference compound]
– | – | – | – | – | – | – | – | – | – | 0.1 ± 0.0132 | > 30 | – | – | – | – | 88.4 ± 1.3 | – | – | Ago- | CCCCCCCC/C=C\CCCCCCCC(=O)OC[C@@H](O)COP(=O)(O)O [LPA (18:1), reference compound]
